Several values for one entry are separate records, joined by “and”; a condition that tells them apart may be missing. Equal values may be shown once. Where a name gives a salt, the structure may show the parent alone. Ends that are not written are not given here.
Experiments:
[1] = tested on: pathway closure; assay: Inhibition of pathway closure by chemicals, methylene blue dye score after microprotrusion array pretreatment; type: in vivo, hairless guinea pigs
Protocol: Inhibition of pathway collapse by chemical agents was studied following pretreatment of the skin with a microprotrusion array and application of a formulation containing the agent for 24 h. Quantitation was performed by evaluation of dye impregnation of the pathways.
Application of the microprotrusion array was performed with an impact applicator. […] Following application, the stretching tension was released. […] The guinea pig received a second system containing a different formulation on the opposite site. Twenty four hours after application, three systems from each group were removed and residual formulation washed from the skin. The skin was stained with a 1% methylene blue solution. Excess dye was thoroughly removed with 70% isopropyl alcohol pads and a picture of the site was taken. Pictures were scored on a 0 to 5 scale, 5 being the dye uptake obtained immediately following microprotrusion array application and 0 being the dye uptake obtained after 24 h contact with a control formulation. A score of 0.5 or greater was considered significant. Various osmotic agents, anticoagulants, antiinflammatory agents, gelling agents as well as gels of different pH and various additives were tested (Table II).

[2] = Passive intracutaneous delivery of plasmid DNA vaccine with microprotrusion array (skin biopsy, PCR); type: in vivo, hairless guinea pigs; conditions: for Increase in plasmid DNA delivered as compared to the control formulation: at one hour, 3% citric acid trisodium salt or 1% Tween 80 in formulation
Protocol: Feasibility studies were conducted in hairless guinea pigs (HGPs) to determine whether passive intracutaneous delivery of a plasmid DNA vaccine (pCMV-AYW-HBs-Mkan), which encodes for hepatitis B surface antigen [HBsAg]), could be achieved using Macroflux. […] Application of the microprotrusion array was performed with an impact applicator. The system applied comprised a foam double adhesive ring (diameter 2.5 cm, thickness 0.08 cm) with a 1 cm^2 reservoir in the middle.
One of two configurations of microprotrusion arrays were used. Each configuration has a total surface area of 2 cm^2 and an active total blade surface area of 1 cm^2.
A microprotrusion array of the selected type was adhered to the adhesive foam and covered the bottom of the reservoir (after application, the microprotrusion array is in contact with the skin). Following application, the stretching tension was released and the microprotrusion array was left in situ. […] At 1 hour after application, two systems from each group were removed and residual formulation washed from the skin. The amount of drug penetrated at that time was determined in a 6 mm diameter full thickness skin biopsy taken at the skin site. The biopsy was dissolved in a digestion buffer (sodium dodecyl sulfate/proteinase K) and relevant DNA content was evaluated by polymerase chain (PCR) reaction followed by electrophoresis of the PCR product. A positive control group was included which consisted of 10 μg plasmid DNA injected intradermally. Negative controls consisted of the plasmid DNA applied on the skin without the use of a microprotrusion array. […].

[3] = 24 h, methylene blue evaluation, Table II
[4] = additive concentration 11%, 24 h, scale 0 to 5, 0.5 or greater significant
[5] = additive concentration 23%, 24 h, scale 0 to 5, 0.5 or greater significant
[6] = additive concentration 50%, 24 h, scale 0 to 5, 0.5 or greater significant
[7] = additive concentration 2%, 24 h, scale 0 to 5, 0.5 or greater significant
[8] = additive concentration 1%, 24 h, scale 0 to 5, 0.5 or greater significant
[9] = additive concentration 5%, 24 h, scale 0 to 5, 0.5 or greater significant
[10] = additive concentration 10%, 24 h, scale 0 to 5, 0.5 or greater significant
[11] = additive concentration 30%, 24 h, scale 0 to 5, 0.5 or greater significant
[12] = additive concentration 13%, 24 h, scale 0 to 5, 0.5 or greater significant
[13] = additive concentration 12%, 24 h, scale 0 to 5, 0.5 or greater significant
[14] = additive concentration 0.05%, 24 h, scale 0 to 5, 0.5 or greater significant

Molecule: CCC(O)CO (stereo not drawn) [1-2 Butane diol]
- Score (methylene blue) ([1]; guinea pig, in vivo): 2.0 ± 0.8

Molecule: CC(O)CCO (stereo not drawn) [1-3 Butane diol]
- Score (methylene blue) ([1]; guinea pig, in vivo): 0.2 ± 0.2

Molecule: OCCCCO [1-4 Butane diol]
- Score (methylene blue) ([1]; guinea pig, in vivo): 3.0 ± 0.3

Molecule: CC(O)C(C)O (stereo not drawn) [2-3 Butane diol]
- Score (methylene blue) ([1]; guinea pig, in vivo): 2.2 ± 0.2

Molecule: OC[C@@H](O)[C@@H](O)[C@@H](O)CO [Adonitol]
- Effect on pathway closure (in words) [1, 3]: most effective agents
- Score (methylene blue) [1, 4]: 3.0 ± 0.3
- Score (methylene blue) [1, 5]: 3.5 ± 0.3
- Score (methylene blue) [1, 6]: 3.7 ± 0.3

Molecule: CC(=O)O.N [Ammonium acetate]
- Score (methylene blue) ([1]; guinea pig, in vivo): 2.1 ± 0.1

Molecule: Cl.N [Ammonium chloride]
- Score (methylene blue) ([1]; guinea pig, in vivo): 2.6 ± 0.1

Molecule: C[C@H]1C[C@H]2[C@@H]3CCC4=CC(=O)C=C[C@]4(C)[C@@]3(F)[C@@H](O)C[C@]2(C)[C@@]1(O)C(=O)COP(=O)([O-])[O-].[Na+].[Na+] [Betamethasone phospate Na, reference compound]
- Effect on pathway closure (in words) [1, 3]: significant effect
- Score (methylene blue) [1, 7]: 2.3 ± 0.4

Molecule: [Ca+2].[Cl-].[Cl-] [Calcium chloride]
- Score (methylene blue) ([1]; guinea pig, in vivo): 0.7 ± 0.4

Molecule: CCCCCCCCCCCCCCCC[n+]1ccccc1 [Cetyl pyridinium chloride]
- Score (methylene blue) ([1]; guinea pig, in vivo): 0 ± 0

Molecule: O=C(O)CC(O)(CC(=O)O)C(=O)O [Citric acid disodium salt]
- Score (methylene blue) ([1]; additive concentration 0.5%, 24 h, scale 0 to 5, 0.5 or greater significant): 0 ± 0
- Score (methylene blue) [1, 8]: 0.3 ± 0.2
- Score (methylene blue) ([1]; additive concentration 3%, 24 h, scale 0 to 5, 0.5 or greater significant): 1.2 ± 0.2

Molecule: C=C1[C@@H](C)[C@H]2[C@H](Cc3ccccc3)NC(=O)[C@]23[C@H](OC(C)=O)/C=C/[C@@](C)(O)C(=O)[C@@H](C)C/C=C/[C@H]3[C@@H]1O [Cytochalasin D, reference compound]
- Score (methylene blue) ([1]; additive concentration 0.025%, 24 h, scale 0 to 5, 0.5 or greater significant): 1.5 ± 0.0

Molecule: O=C[C@H](O)[C@@H](O)[C@H](O)[C@H](O)CO [D-Glucose]
- Effect on pathway closure (in words) [1, 3]: most effective agents
- Score (methylene blue) [1, 9]: 1.5 ± 0.0
- Score (methylene blue) [1, 4]: 1.8 ± 0.6
- Score (methylene blue) [1, 5]: 3.5 ± 0.5
- Score (methylene blue) [1, 6]: 4.0 ± 0.3

Molecule: OCCOCCO [Diethylene glycol]
- Effect on pathway closure (in words) ([1]; guinea pig, in vivo): most effective agents
- Score (methylene blue) ([1]; guinea pig, in vivo): 3.2 ± 0.2

Molecule: C[S+](C)[O-] [Dimethylsulfoxide]
- Score (methylene blue) [1, 10]: 1.0 ± 0.0

Molecule: O=C(O)CN(CCN(CC(=O)O)CC(=O)O)CC(=O)O [EDTA]
- Effect on pathway closure (in words) ([1]; guinea pig, in vivo): most effective agents in preventing pathway closure
- Score (methylene blue) ([1]; guinea pig, in vivo): 1.3 ± 0.2

Molecule: OC[C@@H](O)[C@@H](O)CO [Erythritol]
- Score (methylene blue) [1, 11]: 3.3 ± 0.4

Molecule: CCO [Ethanol]
- Score (methylene blue) ([1]; additive concentration 0% (4.3 M), 24 h, scale 0 to 5, 0.5 or greater significant): 0 ± 0

Molecule: CCOCCOCCO [Ethoxydiglycol]
- Score (methylene blue) [1, 6]: 0.5 ± 0.3

Molecule: Cl.N[C@H]1C(O)O[C@H](CO)[C@H](O)[C@@H]1O (stereo partly drawn) [Galactosamine hydrochloride]
- Score (methylene blue) [1, 6]: 2.8 ± 0.3

Molecule: O=C([O-])[C@H](O)[C@@H](O)[C@H](O)[C@H](O)CO.[Na+] [Gluconic acid sodium salt]
- Score (methylene blue) [1, 10]: 2.7 ± 0.2
- Score (methylene blue) [1, 12]: 3.3 ± 0.0
- Score (methylene blue) [1, 11]: 4.5 ± 0.0

Molecule: O=C[C@H](O)[C@@H](O)[C@H](O)[C@H](O)C(=O)[O-].[Na+] [Glucuronic acid sodium salt]
- Effect on pathway closure (in words) [1, 3]: most effective agents
- Score (methylene blue) [1, 9]: 1.0 ± 0.0
- Score (methylene blue) [1, 10]: 3.5 ± 0.3
- Score (methylene blue) [1, 12]: 3.0 ± 0.3

Molecule: NCC(=O)O [Glycine]
- Score (methylene blue) ([1]; additive concentration 9%, 24 h, scale 0 to 5, 0.5 or greater significant): 1.8 ± 0.3

Molecule: O=C(O)CO [Glycolic acid, sodium salt]
- Score (methylene blue) ([1]; additive concentration 6%, 24 h, scale 0 to 5, 0.5 or greater significant): 1.7 ± 0.1
- Score (methylene blue) [1, 13]: 2.6 ± 0.1
- Score (methylene blue) ([1]; additive concentration 24%, 24 h, scale 0 to 5, 0.5 or greater significant): 2.7 ± 0.1

Molecule: O[C@H]1[C@H](O)[C@@H](O)[C@H](O)[C@@H](O)[C@H]1O [Inositol]
- Score (methylene blue) [1, 10]: 1.5 ± 0.3

Molecule: CC(C)O [Isopropyl alcohol]
- Score (methylene blue) [1, 11]: 0.2 ± 0.2

Molecule: CC(C(=O)O)c1cccc(C(=O)c2ccccc2)c1 (stereo not drawn) [Ketoprofen Na, reference compound]
- Effect on pathway closure (in words) [1, 3]: significant effect
- Score (methylene blue) [1, 7]: 2.3 ± 0.6

Molecule: O=C[C@@H](O)[C@H](O)[C@@H](O)[C@@H](O)CO [L-Glucose]
- Score (methylene blue) [1, 5]: 3.5 ± 0.3

Molecule: O=C(O)CC(O)C(=O)O (stereo not drawn) [Malic acid, disodium salt]
- Score (methylene blue) [1, 4]: 2.1 ± 0.3

Molecule: [Cl-].[Na+] [NaCl]
- Score (methylene blue) ([1]; guinea pig, in vivo): 1.8 ± 0.2

Molecule: CC(O)CO (stereo not drawn) [Propylene glycol]
- Score (methylene blue) [1, 11]: 0.7 ± 0.2
- Score (methylene blue) [1, 6]: 1.3 ± 0.1
- Score (methylene blue) ([1]; additive concentration 70%, 24 h, scale 0 to 5, 0.5 or greater significant): 1.0 ± 0.6

Molecule: O=C[C@H](O)[C@H](O)[C@H](O)CO [Ribose]
- Score (methylene blue) [1, 6]: 2.3 ± 0.3

Molecule: CC(=O)[O-].[Na+] [Sodium acetate]
- Score (methylene blue) ([1]; guinea pig, in vivo): 1.7 ± 0.1

Molecule: CCCCCCCCCCCCOS(=O)(=O)[O-].[Na+] [Sodium dodecyl sulfate]
- Score (methylene blue) ([1]; additive concentration 0.01%, 24 h, scale 0 to 5, 0.5 or greater significant): 0 ± 0

Molecule: OC[C@@H](O)[C@@H](O)[C@H](O)[C@@H](O)CO [Sorbitol]
- Effect on pathway closure (in words) [1, 3]: most effective agents
- Score (methylene blue) [1, 4]: 1.3 ± 0.6
- Score (methylene blue) [1, 5]: 3.3 ± 0.3
- Score (methylene blue) [1, 6]: 3.3 ± 0.3

Molecule: OC[C@H]1O[C@@](CO)(O[C@H]2O[C@H](CO)[C@@H](O)[C@H](O)[C@H]2O)[C@@H](O)[C@@H]1O [Sucrose]
- Score (methylene blue) [1, 6]: 1.7 ± 0.6

Molecule: O=C(O)C(O)C(O)C(=O)O (stereo not drawn) [Tartaric acid, disodium salt]
- Score (methylene blue) [1, 13]: 1.5 ± 0.4

Molecule: OC[C@H]1O[C@H](O[C@H]2O[C@H](CO)[C@@H](O)[C@H](O)[C@H]2O)[C@H](O)[C@@H](O)[C@@H]1O [Trehalose]
- Score (methylene blue) [1, 6]: 1.5 ± 0.0

Molecule: OCCOCCOCCO [Triethylene glycol]
- Score (methylene blue) [1, 10]: 1.3 ± 0.3
- Score (methylene blue) [1, 11]: 3.3 ± 0.3
- Score (methylene blue) [1, 6]: 3.7 ± 0.3

Molecule: Cl.NC(CO)(CO)CO [Tromethamine hydrochloride]
- Effect on pathway closure (in words) ([1]; guinea pig, in vivo): most effective agents
- Score (methylene blue) ([1]; guinea pig, in vivo, hydrochloride): 3.7 ± 0.3 and 2.3 ± 0.3

Molecule: CCCCCCCC/C=C\CCCCCCCC(=O)OCCOCC(OCCO)C1OCC(OCCO)C1OCCO (stereo not drawn) [Tween 80]
- Increase in plasmid DNA delivered as compared to the control formulation [2]: no significant enhancement

Molecule: O=C(O)CC(O)(CC(=O)O)C(=O)O [citric acid trisodium salt]
- Comparison between formulation groups ([2]; 1 hour): most efficient formulation
- Increase in plasmid DNA delivered as compared to the control formulation [2]: more than 10 fold

Molecule: O=C(O)c1ccccc1O [salicylic acid]
- Effect on pathway closure (in words) [1, 3]: had an effect on pathway closure

Molecule: Arg-Gly-Asp [reference compound]
- Score (methylene blue) [1, 8]: 0.7 ± 0.4

Molecule: Heparin [reference compound]
- Score (methylene blue) [1, 7]: 0.3 ± 0.2

Molecule: Insulin [reference compound]
- Score (methylene blue) ([1]; additive concentration 3 mM, 24 h, scale 0 to 5, 0.5 or greater significant): 0.2 ± 0.2

Molecule: Laminin
- Score (methylene blue) [1, 14]: 1.0 ± 0.3

Molecule: PEG-4
- Score (methylene blue) [1, 6]: 2 ± 0.6

Molecule: PEG-12
- Score (methylene blue) [1, 6]: 0 ± 0

Molecule: PEG-350
- Score (methylene blue) [1, 6]: 0 ± 0

Molecule: SIKVAV [reference compound]
- Score (methylene blue) [1, 14]: 0.5 ± 0.5

Molecule: Tyr-Ile-Gly-Ser-Arg-NH2 (YIGSR-NH2) [reference compound]
- Score (methylene blue) [1, 14]: 0.3 ± 0.3

From US7438926B2, “Methods for inhibiting decrease in transdermal drug flux by inhibition of pathway closure” (Alza Corporation, priority 2000, dated 2008)
